Measurements from PubChem BioAssay AID342 (DTP/NCI, 2004).
Values joined by “and” are separate entries in the source; they are usually repeats but may differ in a detail not shown here. Equal entries are not always repeated.

Tested on: Swiss mice, Sarcoma 180 sc, mean tumor weight T/C
Experiment: NCI In Vivo Anticancer Drug Screen. Data for tumor model Sarcoma 180 (subcutaneous) in Swiss mice
Conditions: endpoint: mean tumor weight, higher = larger tumour
Protocol: The antitumor activity of compounds was measured in mice bearing transplantable tumors. Survival or tumor size were measured and the results are expressed as the measurement made in the treated group (T) divided by the measurement made in the vehicle treated control group (C). The tumor model used in this assay is Sarcoma 180 (subcutaneous) in Swiss mice

[1] = dose: 3.0 mg/kg/injection, schedule: Q#A X014 (ip), vehicle: carboxymethylcellulose (CMC)
[2] = dose: 6.0 mg/kg/injection, schedule: Q#A X014 (ip), vehicle: carboxymethylcellulose (CMC)
[3] = dose: 30.0 mg/kg/injection, schedule: Q01DX007 (ip), vehicle: saline
[4] = dose: 60.0 mg/kg/injection, schedule: Q01DX007 (ip), vehicle: saline

Structure (SMILES): O=C1CN(/N=C\c2ccc([N+](=O)[O-])o2)C(=O)N1
- T/C (dose: 6.25 mg/kg/injection, schedule: Q#A X014 (ip), vehicle: carboxymethylcellulose (CMC)): 91 % of control
- T/C (dose: 12.5 mg/kg/injection, schedule: Q#A X014 (ip), vehicle: carboxymethylcellulose (CMC)): 94 % of control
- T/C (dose: 15.5 mg/kg/injection, schedule: Q01DX007 (ip), vehicle: carboxymethylcellulose (CMC)): 106 % of control
- T/C (dose: 21.0 mg/kg/injection, schedule: Q01DX007 (ip), vehicle: carboxymethylcellulose (CMC)): 92 % of control
- T/C (dose: 25.0 mg/kg/injection, schedule: Q#A X014 (ip), vehicle: carboxymethylcellulose (CMC)): 97 % of control
- T/C (dose: 42.0 mg/kg/injection, schedule: Q01DX007 (ip), vehicle: carboxymethylcellulose (CMC)): 88 % of control
- T/C (dose: 50.0 mg/kg/injection, schedule: Q#A X014 (ip), vehicle: carboxymethylcellulose (CMC)): 27 % of control
- T/C (dose: 84.0 mg/kg/injection, schedule: Q01DX007 (ip), vehicle: carboxymethylcellulose (CMC)): 103 % of control

Structure (SMILES): CN(N=O)C(N)=O
- T/C (dose: 1.4 mg/kg/injection, schedule: Q#A X014 (ip), vehicle: carboxymethylcellulose (CMC)): 45 % of control
- T/C (dose: 1.5 mg/kg/injection, schedule: Q#A X014 (ip), vehicle: carboxymethylcellulose (CMC)): 63 % of control
- T/C (dose: 2.81 mg/kg/injection, schedule: Q#A X014 (ip), vehicle: carboxymethylcellulose (CMC)): 53 % of control
- T/C [1]: 73 % of control
- T/C (dose: 5.62 mg/kg/injection, schedule: Q#A X014 (ip), vehicle: carboxymethylcellulose (CMC)): 27 % of control
- T/C [2]: 41 % of control
- T/C (dose: 7.5 mg/kg/injection, schedule: Q01DX007 (ip), vehicle: carboxymethylcellulose (CMC)): 67 % of control
- T/C (dose: 9.6 mg/kg/injection, schedule: Q01DX007 (ip), vehicle: carboxymethylcellulose (CMC)): 65 % of control
- T/C (dose: 11.25 mg/kg/injection, schedule: Q01DX007 (ip), vehicle: carboxymethylcellulose (CMC)): 73 % of control
- T/C (dose: 12.0 mg/kg/injection, schedule: Q01DX007 (ip), vehicle: carboxymethylcellulose (CMC)): 49 % of control
- T/C (dose: 12.0 mg/kg/injection, schedule: Q#A X014 (ip), vehicle: carboxymethylcellulose (CMC)): 35 % of control
- T/C (dose: 15.0 mg/kg/injection, schedule: Q01DX007 (ip), vehicle: carboxymethylcellulose (CMC)): 30 % of control
- T/C (dose: 16.0 mg/kg/injection, schedule: Q01DX007 (ip), vehicle: carboxymethylcellulose (CMC)): 51 % of control
- T/C (dose: 22.5 mg/kg/injection, schedule: Q01DX007 (ip), vehicle: carboxymethylcellulose (CMC)): 14 % of control
- T/C (dose: 24.0 mg/kg/injection, schedule: Q01DX007 (ip), vehicle: carboxymethylcellulose (CMC)): 31 % of control

Structure (SMILES): CC[C@@H](O)C[C@H]1CCC[C@@]2(C[C@@H]3OC(=O)/C=C/[C@@](C)(O)[C@@H](O)[C@H](C)[C@@H](O)[C@H](OC4CCC(N(C)C)C(C)O4)[C@@H](O)[C@](C)(O)CCCCC/C=C/[C@@H]4CC(C)(C)O[C@@]4(O)C[C@H](O2)[C@H]3C)O1 (some centres undefined)
- T/C (dose: 0.15 mg/kg/injection, schedule: Q01DX007 (sc), vehicle: steriod suspending solution): 95 % of control
- T/C (dose: 0.23 mg/kg/injection, schedule: Q01DX007 (sc), vehicle: steriod suspending solution): 113 % of control
- T/C (dose: 0.34 mg/kg/injection, schedule: Q01DX007 (sc), vehicle: steriod suspending solution): 118 % of control

Structure (SMILES): CCOC(=O)c1c(C#N)c(Cl)nc(C)c1[N+](=O)[O-]
- T/C [1]: 64 % of control
- T/C [2]: 70 % of control

Structure (SMILES): N#[N+]c1n[nH]nc1C(N)=O
- T/C (dose: 12.5 mg/kg/injection, schedule: Q01DX007 (ip), vehicle: carboxymethylcellulose (CMC)): 114 % of control
- T/C (dose: 25.0 mg/kg/injection, schedule: Q01DX007 (ip), vehicle: carboxymethylcellulose (CMC)): 74 % of control

Structure (SMILES): C=CC(CN1CC1)OC(C)=O (centres undefined)
- T/C (dose: 0.88 mg/kg/injection, schedule: Q01DX007 (ip), vehicle: carboxymethylcellulose (CMC)): 94 % of control
- T/C (dose: 1.25 mg/kg/injection, schedule: Q01DX007 (ip), vehicle: carboxymethylcellulose (CMC)): 68 % of control
- T/C (dose: 1.75 mg/kg/injection, schedule: Q01DX007 (ip), vehicle: carboxymethylcellulose (CMC)): 97 % of control
- T/C (dose: 2.3 mg/kg/injection, schedule: Q01DX007 (ip), vehicle: carboxymethylcellulose (CMC)): 58 % of control
- T/C (dose: 3.5 mg/kg/injection, schedule: Q01DX007 (ip), vehicle: carboxymethylcellulose (CMC)): 56 % of control
- T/C (dose: 7.0 mg/kg/injection, schedule: Q01DX007 (ip), vehicle: carboxymethylcellulose (CMC)): 50 % of control

Structure (SMILES): CC(=O)[C@H]1CC[C@H]2[C@@H]3C[C@H](F)C4=CC(=O)CC[C@]4(C)[C@@]3(F)[C@@H](O)C[C@]12C
- T/C (dose: 25.0 mg/kg/injection, schedule: Q01DX007 (sc), vehicle: steriod suspending solution): 65 % of control
- T/C (dose: 37.0 mg/kg/injection, schedule: Q01DX007 (sc), vehicle: steriod suspending solution): 49 % of control
- T/C (dose: 282.0 mg/kg/injection, schedule: Q01DX007 (sc), vehicle: steriod suspending solution): 41 % of control
- T/C (dose: 423.0 mg/kg/injection, schedule: Q01DX007 (sc), vehicle: steriod suspending solution): 36 % of control

Structure (SMILES): C[C@H]1C[C@@H]2[C@H]([C@@H](O)C[C@@]3(C)[C@H]2CC[C@]3(O)C(=O)CO)[C@@]2(C)C=CC(=O)C=C12
- T/C (dose: 6.25 mg/kg/injection, schedule: Q#A X014 (sc), vehicle: steriod suspending solution): 82 % of control
- T/C (dose: 12.5 mg/kg/injection, schedule: Q01DX007 (sc), vehicle: water): 45 % of control
- T/C (dose: 12.5 mg/kg/injection, schedule: Q#A X014 (sc), vehicle: steriod suspending solution): 40 % of control
- T/C (dose: 25.0 mg/kg/injection, schedule: Q01DX007 (sc), vehicle: water): 41 % of control
- T/C (dose: 25.0 mg/kg/injection, schedule: Q#A X014 (sc), vehicle: steriod suspending solution): 33 % of control
- T/C (dose: 50.0 mg/kg/injection, schedule: Q01DX007 (sc), vehicle: water): 39 % of control
- T/C (dose: 50.0 mg/kg/injection, schedule: Q#A X014 (sc), vehicle: steriod suspending solution): 27 % of control
- T/C (dose: 100.0 mg/kg/injection, schedule: Q01DX007 (sc), vehicle: water): 18 % of control
- T/C (dose: 100.0 mg/kg/injection, schedule: Q#A X014 (sc), vehicle: steriod suspending solution): 17 % of control

Structure (SMILES): CCOC(=O)CCCc1ccc(N=NN(C)C)cc1
- T/C (dose: 20.0 mg/kg/injection, schedule: Q01DX007 (ip), vehicle: saline): 99 % of control
- T/C [3]: 69 % of control
- T/C (dose: 40.0 mg/kg/injection, schedule: Q01DX007 (ip), vehicle: saline): 63 % of control
- T/C [4]: 68 % of control
- T/C (dose: 75.0 mg/kg/injection, schedule: Q01DX007 (ip), vehicle: saline): 38 % of control
- T/C (dose: 100.0 mg/kg/injection, schedule: Q01DX007 (ip), vehicle: saline): 44 % of control
- T/C (dose: 150.0 mg/kg/injection, schedule: Q01DX007 (ip), vehicle: saline): 31 % of control
- T/C (dose: 200.0 mg/kg/injection, schedule: Q01DX007 (ip), vehicle: saline): 12 % of control

Structure (SMILES): O=[n+]1c2c(n([O-])c3ccccc31)-c1cccc3cccc-2c13
- T/C (dose: 41.0 mg/kg/injection, schedule: Q01DX007 (ip), vehicle: carboxymethylcellulose (CMC)): 69 % of control
- T/C (dose: 210.0 mg/kg/injection, schedule: Q01DX007 (ip), vehicle: carboxymethylcellulose (CMC)): 10 % of control
- T/C (dose: 315.0 mg/kg/injection, schedule: Q01DX007 (ip), vehicle: carboxymethylcellulose (CMC)): 25 % of control

Structure (SMILES): Nc1n[se]nc1C(=O)O
- T/C (dose: 0.5 mg/kg/injection, schedule: Q01DX007 (ip), vehicle: carboxymethylcellulose (CMC)): 96 % of control
- T/C (dose: 1.0 mg/kg/injection, schedule: Q01DX007 (ip), vehicle: carboxymethylcellulose (CMC)): 117 % of control
- T/C (dose: 2.0 mg/kg/injection, schedule: Q01DX007 (ip), vehicle: carboxymethylcellulose (CMC)): 77 % of control

Structure (SMILES): Cc1cn(C2OC(CO)C(O)C2O)c(=O)[nH]c1=O (centres undefined)
- T/C (dose: 7.5 mg/kg/injection, schedule: Q01DX007 (ip), vehicle: saline): 90 % of control
- T/C [3]: 115 % of control
- T/C [4]: 89 % of control
- T/C (dose: 120.0 mg/kg/injection, schedule: Q01DX007 (ip), vehicle: saline): 99 % of control

Structure (SMILES): CC(=O)OCC(=O)[C@@]1(O)[C@H](C)C[C@H]2[C@@H]3C=C(C)C4=Cc5c(cnn5-c5ccc(F)cc5)C[C@]4(C)[C@H]3[C@@H](O)C[C@@]21C
- T/C (dose: 0.44 mg/kg/injection, schedule: Q01DX007 (sc), vehicle: steriod suspending solution): 108 % of control
- T/C (dose: 0.66 mg/kg/injection, schedule: Q01DX007 (sc), vehicle: steriod suspending solution): 85 % of control
- T/C (dose: 2.25 mg/kg/injection, schedule: Q01DX007 (sc), vehicle: steriod suspending solution): 23 % of control and 34 % of control
- T/C (dose: 3.38 mg/kg/injection, schedule: Q01DX007 (sc), vehicle: steriod suspending solution): 37 % of control and 44 % of control and 62 % of control
- T/C (dose: 5.07 mg/kg/injection, schedule: Q01DX007 (sc), vehicle: steriod suspending solution): 26 % of control and 49 % of control
- T/C (dose: 7.61 mg/kg/injection, schedule: Q01DX007 (sc), vehicle: steriod suspending solution): 24 % of control
- T/C (dose: 11.42 mg/kg/injection, schedule: Q01DX007 (sc), vehicle: steriod suspending solution): 24 % of control
